Solubility data for one compound are collected here from patent US20110144577A1, “HYDROPHILIC COATINGS WITH TUNABLE COMPOSITION FOR DRUG COATED BALLOON” (priority 2009, published 2011).

The nature of this series: Solubility enhancement of zotarolimus with select excipients in PBS. Format: physicochemical. The conditions noted are these: n = 3. The text has this: Table 1 provides non-limiting examples of the solubility enhancement provided by excipients that can be used in accordance with the disclosed subject matter: […]

In general, solubility refers to how much of the substance goes into solution per volume. On to `CO[C@H]1C[C@@H]2CC[C@@H](C)[C@@](O)(O2)C(=O)C(=O)N2CCCC[C@H]2C(=O)O[C@H]([C@H](C)C[C@@H]2CC[C@H](n3cnnn3)[C@H](OC)C2)CC(=O)[C@H](C)/C=C(\C)[C@@H](O)[C@@H](OC)C(=O)[C@H](C)C[C@H](C)/C=C/C=C/C=C/1C` [Zotarolimus, zotarolimus], for which the solubility reads like this: (PBS with 5% w/w PEG 400, aqueous with cosolvent or surfactant or cyclodextrin, PEG 400 5% w/w in PBS) 31.5 ± 3.5 µg/mL; (PBS with 5% w/w PEG-PE, aqueous with cosolvent or surfactant or cyclodextrin, PEG-PE 5% w/w in PBS) 1020 ± 417 µg/mL; (PBS with 5% w/w PVP C-17, aqueous with cosolvent or surfactant or cyclodextrin, PVP C-17 5% w/w in PBS) 5.6 ± 1.6 µg/mL; (PBS with 5% w/w Tween 20, aqueous with cosolvent or surfactant or cyclodextrin, Tween 20 5% w/w in PBS) 732 ± 94.7 µg/mL; (PBS with 5% w/w Vitamin E TPGS, aqueous with cosolvent or surfactant or cyclodextrin, Vitamin E TPGS 5% w/w in PBS) 512 ± 49.5 µg/mL; (PBS with 5% w/w glycerol, aqueous with cosolvent or surfactant or cyclodextrin, Glycerol 5% w/w in PBS) 43.2 ± 30.1 µg/mL. For the same compound, the solubility was found to be 11.6 ± 3.1 µg/mL (PBS with 5% w/w hydroxypropyl-β-cyclodextrin, aqueous with cosolvent or surfactant or cyclodextrin, Hydroxypropyl-β-cyclodextrin 5% w/w in PBS) and 55.3 ± 34.3 µg/mL (PBS with 5% γ-cyclodextrin, aqueous with cosolvent or surfactant or cyclodextrin, 5% γ-Cyclodextrin in PBS).
